Counter-ions that a name gives are not always drawn.
Assays:
[1] = target: T1, 5HT6-human recombinant receptor (Homo sapiens, UniProt P50406); experiment: Binding to serotonin receptor 5-HT6 ([H]-LSD radioligand, HEK-293 cell membranes); conditions: membranes of HEK-293 cells expressing 5HT6-human recombinant receptor; [H]-LSD 2.7 nM; 60 minutes at 37° C.
T1 construct: purchased Receptor Biology; host or cells: HEK-293 cells (membranes)
Protocol: I) Binding to Serotonin Receptor 5-HT6
Cell membranes of HEK-293 cells expressing the 5HT6-human recombinant receptor were supplied by Receptor Biology. In said membranes the receptor concentration is 2.18 pmol/mg protein and the protein concentration is 9.17 mg/ml. The experimental protocol follows the method of B. L. Roth et al. [B. L. Roth, S. C. Craigo, M. S. Choudhary, A. Uluer, F. J. Monsma, Y. Shen, H. Y. Meltzer, D. R. Sibley: Binding of Typical and Atypical Antipsychotic Agents to 5-Hydroxytryptamine-6 and Hydroxytryptamine-7 Receptors. The Journal of Pharmacology and Experimental Therapeutics, 1994, 268, 1403] with the following slight changes. The respective part of the literature description is hereby incorporated by reference and forms part of the disclosure.
The commercial membrane is diluted (1:40 dilution) with the binding buffer: 50 mM Tris-HCl, 10 mM MgCl2, 0.5 mM EDTA (pH 7.4). The radioligand used is [H]-LSD at a concentration of 2.7 nM with a final volume of 200 μl. Incubation is initiated by adding 100 μl of membrane suspension, (≈22.9 μg membrane protein), and is prolonged for 60 minutes at a temperature of 37° C. The incubation is ended by fast filtration in a Brandel Cell Harvester through fiber glass filters made by Schleicher & Schuell G F 3362 pretreated with a solution of polyethylenimine at 0.5%. The filters are washed three times with three milliliters of buffer Tris-HCl 50 mM pH 7.4. The filters are transferred to flasks and 5 ml of Ecoscint H liquid scintillation cocktail are added to each flask. The flasks are allowed to reach equilibrium for several hours before counting with a Wallac Winspectral 1414 scintillation counter. Non-specific binding is determined in the presence of 100 μM of serotonin. Tests were made in triplicate. The inhibition constants (Ki, nM) were calculated by non-linear regression analysis using the program EBDA/LIGAND described in Munson and Rodbard, Analytical Biochemistry, 1980, 107, 220, the respective part of which is hereby incorporated by reference and forms part of the disclosure.
The binding of the substituted indole compounds to the 5-HT6 receptor was determined as described above.

T1 sequence (P50406 whole entry): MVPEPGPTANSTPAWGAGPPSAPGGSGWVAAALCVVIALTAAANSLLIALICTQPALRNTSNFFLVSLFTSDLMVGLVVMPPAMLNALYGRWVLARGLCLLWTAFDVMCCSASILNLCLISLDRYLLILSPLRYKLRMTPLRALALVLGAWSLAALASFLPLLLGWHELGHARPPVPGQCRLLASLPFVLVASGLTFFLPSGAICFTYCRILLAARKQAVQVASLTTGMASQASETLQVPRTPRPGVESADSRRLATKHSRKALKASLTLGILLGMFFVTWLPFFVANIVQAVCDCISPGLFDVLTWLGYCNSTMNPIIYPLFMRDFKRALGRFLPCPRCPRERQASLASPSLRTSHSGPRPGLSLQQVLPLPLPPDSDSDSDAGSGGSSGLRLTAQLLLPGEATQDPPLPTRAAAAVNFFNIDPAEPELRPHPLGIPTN

melting point | SMILES | Ki [1]
130 to 140 °C | Cc1c(S(=O)(=O)Nc2cccc3c(CCN(C)C)c[nH]c23)sc2ccc(Cl)cc12 | 
103 to 107 °C | CN(C)CCc1c[nH]c2cc(N(S(=O)(=O)c3cc(Cl)cc(Cl)c3)S(=O)(=O)c3cc(Cl)cc(Cl)c3)ccc12 | 
96 to 98 °C | CN(C)CCc1c[nH]c2cc(NS(=O)(=O)c3cc(Cl)cc(Cl)c3)ccc12 | 
235 to 236 °C | Cc1c(S(=O)(=O)Nc2cccc3[nH]cc(CCN(C)C)c23)sc2ccc(Cl)cc12 | 
50 to 53 °C | CCN(CC)CCc1c[nH]c2cc(NS(=O)(=O)c3ccc(Oc4ccccc4)cc3)ccc12 | 
81 to 85 °C | CCN(CC)CCc1c[nH]c2cc(NS(=O)(=O)c3ccc(-c4ccccc4)cc3)ccc12 | 
90 °C | CN(C)CCc1c[nH]c2cc(NS(=O)(=O)CCc3cccc4ccccc34)ccc12 | 
183 to 187 °C | CCN(CC)CCc1c[nH]c2cc(NS(=O)(=O)c3cccc4ccccc34)ccc12 | 
198 to 200 °C | CN(C)CCc1c[nH]c2cccc(NS(=O)(=O)c3ccc4c(Cl)cccc4c3)c12 | 
164 to 168 °C | CN(C)CCc1c[nH]c2cc(NS(=O)(=O)c3ccc(-c4ccccc4)cc3)ccc12 | 
86 to 90 °C | CCN(CC)CCc1c[nH]c2cc(NS(=O)(=O)c3cccc4c(Cl)cccc34)ccc12 | 
170 to 171 °C | CN(C)CCc1c[nH]c2cc(NS(=O)(=O)c3ccc(Oc4ccccc4)cc3)ccc12 | 
111 to 114 °C | CN(C)CCc1c[nH]c2cc(NS(=O)(=O)c3cc(Cl)c(Cl)s3)ccc12 | 
187 to 190 °C | CN(C)CCc1c[nH]c2cc(NS(=O)(=O)c3cccc4c(Cl)cccc34)ccc12 | 
212 to 215 °C | CN(C)CCc1c[nH]c2cccc(NS(=O)(=O)c3cc(Cl)cc(Cl)c3)c12 | 
79 to 85 °C | CCN(CC)CCc1c[nH]c2cc(NS(=O)(=O)c3cc(Cl)cc(Cl)c3)ccc12 | 
79 to 84 °C | CCN(CC)CCc1c[nH]c2c(NS(=O)(=O)c3sc4ccc(Cl)cc4c3C)cccc12 | 
146 to 147 °C | CCN(CC)CCc1c[nH]c2cc(NS(=O)(=O)c3ccc4ccccc4c3)ccc12 | 
200 to 205 °C | CCN(CC)CCc1c[nH]c2cc(NS(=O)(=O)c3cc(Cl)c(Cl)s3)ccc12 | 

Second part, the molecule before the results:

SMILES | melting point | Ki [1]
CN(C)CCc1c[nH]c2cc(N(S(=O)(=O)c3cc(Cl)c(Cl)s3)S(=O)(=O)c3cc(Cl)c(Cl)s3)ccc12 | 187 to 188 °C | 
CCN(CC)CCc1c[nH]c2c(N(S(=O)(=O)c3sc4ccc(Cl)cc4c3C)S(=O)(=O)c3sc4ccc(Cl)cc4c3C)cccc12 | 87 to 90 °C | 
CN(C)CCc1c[nH]c2cccc(NS(=O)(=O)c3c(Cl)nc4sccn34)c12 | 216 °C | 
CCOC(CN(C)C)c1c[nH]c2cc(N(S(=O)(=O)c3sc4ccc(Cl)cc4c3C)S(=O)(=O)c3sc4ccc(Cl)cc4c3C)ccc12 (stereo not shown) | 208 °C | 
CN(C)CCc1c[nH]c2cccc(NS(=O)(=O)c3ccc(-c4ccccc4)cc3)c12 | 182 to 184 °C | 
Cc1c(S(=O)(=O)N(c2cccc3c(CCN(C)C)c[nH]c23)S(=O)(=O)c2sc3ccc(Cl)cc3c2C)sc2ccc(Cl)cc12 | 110 to 120 °C | 
CCOC(CN(CC)CC)c1c[nH]c2c(N(S(=O)(=O)c3sc4ccc(Cl)cc4c3C)S(=O)(=O)c3sc4ccc(Cl)cc4c3C)cccc12 (stereo not shown) | 155 to 156 °C | 
CN(C)CCc1c[nH]c2cccc(NS(=O)(=O)c3ccc(Oc4ccccc4)cc3)c12 | 78 to 82 °C | 
CCOC(CN(C)C)c1c[nH]c2c(NS(=O)(=O)c3sc4ccc(Cl)cc4c3C)cccc12 (stereo not shown) | 145 °C | 
CN(C)CCc1c[nH]c2cc(NS(=O)(=O)c3cccc4ccccc34)ccc12 [Example 12, N-(3-(2-(dimethylamino)ethyl)-1H-indol-6-yl)naphthalene-1-sulfonamide] | 167 to 168 °C | 31.1 nM
CN(C)CCc1c[nH]c2cccc(NS(=O)(=O)c3cccc4ccccc34)c12 | 223 to 225 °C | 
CN(C)CCc1c[nH]c2cc(NS(=O)(=O)c3c(Cl)nc4sccn34)ccc12 [Example 13, 6-chloro-N-(3-(2-(dimethylamino)ethyl)-1H-indol-6-yl)imidazo[2,1-b]thiazole-5-sulfonamide] | 138 to 142 °C | 7.3 nM
CN(C)CCc1c[nH]c2cc(NS(=O)(=O)c3ccc4ccccc4c3)ccc12 [Example 11, N-(3-(2-(dimethylamino)ethyl)-1H-indol-6-yl)naphthalene-2-sulfonamide] | 150 to 151 °C | 42.6 nM
CN(C)CCc1c[nH]c2cccc(NS(=O)(=O)CCc3cccc4ccccc34)c12 (as salt: TFA) | 170 to 172 °C | 
CN(C)CCc1c[nH]c2cc(N(S(=O)(=O)c3c(Cl)nc4sccn34)S(=O)(=O)c3c(Cl)nc4sccn34)ccc12 | 210 °C | 
CN(C)CCc1c[nH]c2cccc(NS(=O)(=O)c3ccc4ccccc4c3)c12 | 165 to 168 °C | 
CCN(CC)CCc1c[nH]c2cc(NS(=O)(=O)c3c(Cl)nc4sccn34)ccc12 [Example 4, 6-chloro-N-(3-(2-(diethylamino)ethyl)-1H-indol-6-yl)imidazo[2,1-b]thiazole-5-sulfonamide] | 210 to 212 °C | 42.8 nM

From patent US20070213326A1, “SUBSTITUTED INDOLE COMPOUNDS AND THEIR USE AS 5-HT6 RECEPTOR MODULATORS” (LABORATORIOS DEL DR. ESTEVE S.A., priority 2004, published 2007)
